Source: patent US20150071904A1, “COMPOSITIONS AND METHODS TO BOOST ENDOGENOUS ROS PRODUCTION FROM BACTERIA” (Trustees of Boston University, priority 2012, published 2015)

Experiments:
[1] = cited from earlier work
[2] = tested on: Escherichia coli MG1655 wildtype cells; assay: Carboxin inhibitor experiments (CFU survival, alone and combined with H2O2 or ampicillin; dose response and synergy); assay type: cell-based
Procedure: Strains were grown aerobically from an initial inoculation of OD600=0.01 to OD600=0.16-0.20 in 250 mL baffled flasks filled to 1/10th the total volume and shaken at 300 rpm at 37° C. Time-zero samples were collected (200-400 μL), then 1 mL aliquots were transferred to 14 mL test tubes. Carboxin solubilized in 100% ethanol or ethanol alone was added to the tubes. […] Drug synergism was calculated using the Bliss Independence and Highest Single Agent models^52, 53. Specifically, the formula,
was used to calculate synergism with the Bliss Independence model. A and B are the effects of the two drugs in isolation, whereas, BICAB is the combined effect of the two drugs as predicted by the Bliss Independence model. If CAB, the experimentally-determined combined effect of the two drugs, is >BICAB, synergy is observed. In contrast, in the Highest Single Agent model, if CAB>max(A, B) synergy is observed. Since cell death was monitored, the quantitative effect of each compound was defined as the fractional reduction of the population, R=1−CFUt/CFU0, where CFUt is the number of CFUs measured after treatment, and CFU0 is the number of CFUs measured before treatment. R=1 indicates complete loss of the population, R=0 indicates a population in stasis, and R<0 indicates a growing population. […] The Bliss Independence model can be written as follows,
If A is a compound that reduces CFUs, such as ampicillin, its effect above the MIC will be 0≦A≦1, whereas if B is a compound that allows growth at all concentrations, its effect will be B<0 regardless of the concentration. Rearrangement of the above yields,
Since equation 3 yields BICAB/A<1 for all B<0 and 0<A<1, the Highest Single Agent model requires CAB/A>1 and the Bliss Independence model requires CAB/BICAB>1 for synergy, the Highest Single Agent model will always be a more strict synergy requirement under these conditions. […] Modeling Escherichia coli ROS Metabolism

[3] = tested on: Escherichia coli MG1655 wildtype and single-gene deletion strains; assay: Antimicrobial sensitivity assays (CFU time course of deletion strains and wildtype treated with oxidants or antibiotics); assay type: cell-based; details: 500 ng/mL gentamicin, FIG. 6C
Procedure: Escherichia coli MG1655 was used in this study. Genetic deletions of aceA, appB, atpC, cyoA, edd, fumB, fbaB, gdhA, gltB, gnd, mqo, nuoG, pfkB, pta, pykA, rpiB, sdhC, sucC, talB, tktB and zwf were transduced from the Keio single-gene deletion knockout library^63 into MG1655 using the P1 phage method, and confirmed with PCR. The media used for all experiments was M9 minimal media with 10 mM glucose as the sole carbon source or MOPS minimal media with 10 mM glucose (for the HyPer protein experiments).
Strains were grown aerobically from an initial inoculation of OD600=0.01 to OD600=0.16-0.20 in 250 mL baffled flasks filled to 1/10th the total volume and shaken at 300 rpm at 37° C. For menadione, H2O2, and ampicillin sensitivity assays, time-zero samples were collected (200-400 μL), then 1 mL aliquots were transferred to 14 mL test tubes, and appropriate volumes of menadione, H2O2, or ampicillin stock solutions, not in excess of 15 μL, were added to obtain the final concentrations (1 mM menadione, 5 mM H2O2, 7.5 μg/mL ampicillin, 100 ng/mL ofloxacin, 15 ng/mL ciprofloxacin, 500 ng/mL gentamicin, 10 μg/mL tetracycline, and 15 μg/mL chloramphenicol). […] Colony forming units were counted approximately 16-18 hours after plating.

CC1=C(C(=O)Nc2ccccc2)SCCO1 [carboxin]
suitability as antibiotic adjuvant, human toxicity [1]: not suitable as an antibiotic adjuvant due to human toxicity issues | sensitivity of wildtype cells to ampicillin with carboxin compared to ampicillin alone ([2]; 500 μM carboxin + 10 μg/mL ampicillin, FIG. 4F): significantly more sensitive | sensitivity of wildtype cells to H2O2 with carboxin compared to H2O2 alone ([2]; 500 μM carboxin + 5 mM H2O2, FIG. 4E): increased sensitivity | effect of carboxin alone on growth of wildtype cells ([2]; carboxin alone, 500 μM, wildtype E. coli, FIGS. 4E, 4F): no effect on the growth | lethality / growth of E. coli with carboxin ([2]; concentrations as high as 1 mM): non-lethal and allowed significant growth

gentamicin
sensitivity of many target strains compared to wildtype ([3]; many predicted target deletion strains): decreased sensitivity | sensitivity of ΔatpC strain compared to wildtype ([3]; ΔatpC E. coli): increased sensitivity

CC1(C)S[C@@H]2[C@H](NC(=O)[C@H](N)c3ccccc3)C(=O)N2[C@H]1C(=O)O [ampicillin]
ampicillin concentrations synergistic with carboxin ([2]; carboxin 250 μM or greater, Bliss Independence and Highest Single Agent models, FIG. 8): 7.5 to 10 µg/mL
